Laboratory results taken from the supplement of paper PMC10307832.

How the values were obtained:
Experiment in all cases: relative viability (nuclei count vs DMSO), 5 days (fraction); higher = more cells survive
201T = system: 201T
Method in brief: (§1)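 Medians of duplicate plates are given as relative viability. That measure is the nuclei count in treated wells divided by the count in vehicle wells. Counts were taken on 4× images of lung cancer cell lines in 1536-well plates, 5 days after pin-tool dosing the day after seeding with one drug alone or a fixed anchor-drug dose plus five library-drug doses (not always all listed) in √10 steps.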

A-427 = system: A-427
Method in brief: as §1

COR-L23 = system: COR-L23
Method in brief: as §1

ChaGo-K-1 = system: ChaGo-K-1
Method in brief: as §1

HARA = system: HARA
Method in brief: as §1

HCC-15 = system: HCC-15
Method in brief: as §1

HCC-366 = system: HCC-366
Method in brief: as §1

HCC-78 = system: HCC-78
Method in brief: as §1

LCLC-103H = system: LCLC-103H
Method in brief: as §1

LCLC-97TM1 = system: LCLC-97TM1
Method in brief: as §1

LOU-NH91 = system: LOU-NH91
Method in brief: as §1

O=C(O)CCCCC(CCSCc1ccccc1)SCc1ccccc1 (centres undefined) [CPI-613] + COc1cc2c(Oc3ccc(NC(=O)C4(C(=O)Nc5ccc(F)cc5)CC4)cc3F)ccnc2cc1OCCCN1CCOCC1 [Foretinib] (partner 0.25 µM)
relative viability (201T; first compound 5 µM): 1.12 | relative viability (201T; first compound 15.81 µM): 1.03 | relative viability (201T; first compound 50 µM): 1.11 | relative viability (201T; first compound 158.11 µM): 0.329 | relative viability (201T; first compound 500 µM): 0.0557 | relative viability (A-427; first compound 5 µM): 1.14 | relative viability (A-427; first compound 15.81 µM): 1.11 | relative viability (A-427; first compound 50 µM): 0.86 | relative viability (A-427; first compound 158.11 µM): 0.526 | relative viability (A-427; first compound 500 µM): 0.131 | relative viability (COR-L23; first compound 5 µM): 0.983 | relative viability (COR-L23; first compound 15.81 µM): 0.995 | relative viability (COR-L23; first compound 50 µM): 0.714 | relative viability (COR-L23; first compound 158.11 µM): 0.614 | relative viability (COR-L23; first compound 500 µM): 0.0368 | relative viability (ChaGo-K-1; first compound 5 µM): 0.818 | relative viability (ChaGo-K-1; first compound 15.81 µM): 0.901 | relative viability (ChaGo-K-1; first compound 50 µM): 0.929 | relative viability (ChaGo-K-1; first compound 158.11 µM): 0.245 | relative viability (ChaGo-K-1; first compound 500 µM): 0.105 | relative viability (HARA; first compound 15.81 µM): 0.778 | relative viability (HARA; first compound 50 µM): 0.923 | relative viability (HARA; first compound 158.11 µM): 0.51 | relative viability (HARA; first compound 500 µM): 0.0068 | relative viability (HCC-15; first compound 5 µM): 0.974 | relative viability (HCC-15; first compound 15.81 µM): 1 | relative viability (HCC-15; first compound 50 µM): 1.01 | relative viability (HCC-15; first compound 158.11 µM): 0.236 | relative viability (HCC-15; first compound 500 µM): 0.039 | relative viability (HCC-366; first compound 5 µM): 0.963 | relative viability (HCC-366; first compound 15.81 µM): 0.962 | relative viability (HCC-366; first compound 50 µM): 0.989 | relative viability (HCC-366; first compound 158.11 µM): 0.322 | relative viability (HCC-366; first compound 500 µM): 0.0079 | relative viability (HCC-78; first compound 5 µM): 0.497 | relative viability (HCC-78; first compound 15.81 µM): 0.554 | relative viability (HCC-78; first compound 50 µM): 0.545 | relative viability (HCC-78; first compound 158.11 µM): 0.52 | relative viability (HCC-78; first compound 500 µM): 0.473 | relative viability (LCLC-103H; first compound 5 µM): 0.744 | relative viability (LCLC-103H; first compound 15.81 µM): 0.757 | relative viability (LCLC-103H; first compound 50 µM): 0.805 | relative viability (LCLC-103H; first compound 158.11 µM): 0.174 | relative viability (LCLC-103H; first compound 500 µM): 0.243 | relative viability (LCLC-97TM1; first compound 5 µM): 0.95 | relative viability (LCLC-97TM1; first compound 15.81 µM): 0.935 | relative viability (LCLC-97TM1; first compound 50 µM): 0.926 | relative viability (LCLC-97TM1; first compound 158.11 µM): 0.324 | relative viability (LCLC-97TM1; first compound 500 µM): 0.0466 | relative viability (LOU-NH91; first compound 5 µM): 0.863 | relative viability (LOU-NH91; first compound 15.81 µM): 0.902 | relative viability (LOU-NH91; first compound 50 µM): 0.949 | relative viability (LOU-NH91; first compound 158.11 µM): 0.963 | relative viability (LOU-NH91; first compound 500 µM): 0.916
